Data set [1] has as its system PC12 cells. Kind of data set: LDH release assay, Aβ25-35-treated PC12 cells. The class given is cell-based, Rat. Particulars: 25 μM Aβ25-35-treated PC12 cells. The method, then:
(§1) PC12 cells were maintained in DMEM supplemented with 10% heat-inactivated horse serum and 5% fetal bovine serum at 37° C. in a humidified atmosphere of 10% CO2/90% air. All cells were cultured in poly-D-lysine coated culture dishes. The medium was changed every other day, and cells were plated at an appropriate density according to each experimental scale. After 24 h subculture, cells were switched to serum-free N-2 defined medium for treatment. For determination of cell viability, PC12 cells were initially plated at a density of 4×10^4 cells/300 μl in 48-well plates, and the cell viability was determined by the conventional MTT reduction and the lactate dehydrogenase (LDH) release assay as described below.
This assay measures the leakage of the soluble cytoplasmic LDH enzyme into the extracellular medium due to cell lysis. PC12 cells were plated at the same density as for the MTT assay described above. The amount of lactate was measured by monitoring the oxidation of L-lactic acid by NAD^+ in the presence of LDH to pyruvate. The culture media were transferred to 96-well plate and incubated with 1 mg/ml β-NAD^+ in pyruvate substrate solution at 37° C. for 30 min. […] The changes in absorbance were determined at 450 nm using a spectrophotometric microplate reader.
Background: LDH in the medium is a marker of cell lysis.

Data set [2] deals with peroxynitrite. Kind of data set: Intracellular peroxynitrite formation (DHR123 fluorescence). It counts as cell-based, Rat. Particulars: 25 μM Aβ25-35, 36 h; L-ergothioneine present in the media. The protocol: To monitor intracellular formation of peroxynitrite, the fluorescent probe DHR123 was used. DHR123 is lipophilic and readily diffuses across cell membranes. Upon oxidation of DHR to fluorescent rhodamine, one of the two covalent amino groups tautomerizes to a changed imino, effectively trapping rhodamine within cells. DHR is not oxidized by nitric oxide (NO) but peroxynitrite effectively oxidizes it. After treatment with Aβ25-35 (25 μM) for 36 h in the presence or absence of L-ergothioneine, cells (1×10^4 cells/1 ml in 4-well chamber slide) were rinsed with saline A, and 10 μM DHR in saline A containing 5% fetal bovine serum was loaded. After 20 min incubation at 37 C, cells were examined under a confocal microscope equipped with an argon laser (488 nm; 200 mW). To quntitate peroxynitrite generation in response to Aβ25-35, total peroxynitrite production (basal+incease) was divided by basal peroxynitrite generation. Changes in fluorescence intensity are expressed as a percentage of the control.

The conditions of data set [3]: Sheep; cited from earlier work.
The subject of data set [4] is PC12 cells. Kind of data set: MTT dye reduction assay, Aβ25-35-induced cytotoxicity. The class given is cell-based, Rat. Particulars: 1 mM EGT, added 30 min prior to Aβ25-35; 36 h. The method, then:
as §1
The MTT assay is a sensitive measurement of the normal metabolic status of cells, particularly that of mitochondria, which reflects early cellular redox changes. After incubation, cells were treated with the MTT solution (final concentration, 1 mg/ml) for 2 h. The dark blue formazan crystals formed in intact cells were dissolved in DMSO, and absorbance at 570 nm was measured with a microplate reader. Results were expressed as the percentage (%) of MTT reduction, assuming that the absorbance of control cells was 100%.
(In general: Tetrazolium dyes change colour on reduction, which living cells bring about.)

The conditions of data set [5]: Fowl; cited from earlier work.
The test system of data set [6] is NF-κB. Kind of data set: EMSA, Aβ25-35-induced NF-κB DNA binding activity. Particulars: 25 μM Aβ25-35 for 1 h; EGT pretreatment (0.5 mM, 1 mM). The class given is cell-based, Rat. The method, then:
To explore the molecular mechanisms underlying the protective effect of L-ergothioneine against Aβ25-35-induced nitrosative cell death, the activation of NF-κB was assessed by EMSA using an oligonucleotide containing a consensus κB binding element. After treatment with 25 μM Aβ25-35 for 1 h in the absence or presence of L-ergothioneine, PC12 cells (1×10^7 cells/7 ml in 100φ dish) were washed with PBS, centrifuged, and resuspended in ice-cold isotonic buffer A [10 mM HEPES, pH 7.9, 1.5 mM MgCl2, 10 mM KCl, 0.5 mM dithiothreitol (DTT) and 0.2 mM phenylmethylsulfonyl fluoride (PMSF)]. Following incubation in an ice bath for 10 min, cells were centrifuged again and resuspended in ice-cold buffer C containing 20 mM HEPES (pH 7.9), 20% glycerol, 420 mM […], 1.5 mM MgCl2, 0.2 mM EDTA, 0.5 mM DTT and 0.2 mM PMSF followed by incubation at 0° C. for 20 min. After vortex-mixing, the resulting suspension was centrifuged, and the supernatant was stored at −70° C. for the NF-κB DNA binding assay. The protein concentration was determined by using the BCA protein assay kit.
Synthetic double strand oligonucleotide containing the NF-κB binding domain was labeled with [γ-^32P]ATP using T4 polynucleotide kinase and separated from unincorporated [γ-^32P]ATP by gel filtration using a nick spin column (Phamacia Biotech, Bjorkgatan, Sweden). […]

Data set [7] deals with PC12 cells. Kind of data set: Lipid peroxidation (MDA, BIOXYTECH LPO-586). It counts as cell-based, Rat. The settings on record: Aβ25-35-treated PC12 cells; pretreatment for 30 min. The method, then:
The extent of lipid peroxidation in PC12 cells treated with Aβ25-35 was assessed using the commercially available calorimetric assay kit BIOXYTECH LPO-586 (OXIS Research, Portland, Oreg.). After exposure to 50 μM Aβ25-35 in the presence or absence of L-ergothioneine at 37° C. for 24 h, PC12 cells were harvested and homogenized in 20 mM Tris-HCl buffer (pH 7.4), containing 0.5 mM butylated hydroxytoluene to prevent sample oxidation. After centrifugation, 3.25 volumes of diluted R1 reagent (10.3 mM N-methyl-2-phenylindole in acetonitrile) was added to the supernatant, followed by gentle vortex mixing following the addition of 0.75 ml of 37% (v/v) HCl, the mixtures were incubated at 45° C. for 60 min. After cooling and centrifugation, the absorbance of the clear supernatant was read at 590 nm. The protein concentration was determined using the BCA protein assay kit.

Data set [8] concerns PC12 cells. Kind of data set: Mitochondrial membrane potential (ΔΨm) by TMRE fluorescence. Particulars: 25 μM Aβ25-35; pretreatment of EGT (0.5 mM, 1 mM). The class given is cell-based, Rat. The protocol:
To measure the mitochondrial membrane potential (ΔΨm), the lipophilic cationic probe TMRE was used. After treatment with Aβ25-35 (25 μM) for 24 h in the presence or absence of EGT, cells (1×10^4 cells/1 ml in 4-well chamber) were rinsed with PBS, and TME (150 nM) was loaded. After 30 min incubation at 37° C., cells were examined under a confocal microscope (LEICA TCS SP).

Molecules are shown by their SMILES. Like-named read-outs stand apart in the source and are kept apart here.

The source of these data is patent US20080107603A1, “Neuroprotectant methods, compositions, and screening methods thereof” (priority 2002, published 2008).

On to `C[N+](C)(C)[C@@H](Cc1c[nH]c(=S)[nH]1)C(=O)[O-]` [L-ergothioneine, 2-mercaptohistidine trimethylbetaine], for which, in data set [1], the LDH release entry is “reduce the LDH release”. For the same compound, in data set [2], the intracellular peroxynitrite formation result was “significantly reduced”. The results for the “L-Ergothioneine Concentration (mg/100 ml blood)” value in data set [3] and in data set [5] were 2-6 mg/100 ml blood and 2-10 mg/100 ml blood, respectively. Besides, the “cytotoxic effect of Aβ25-35 (MTT reduction)” value in data set [4] was “inhibited”. Moreover, in data set [6], the “NF-κB DNA binding” value is “inhibited”. Moreover, the lipid peroxidation entry in data set [7] is recorded as “concentration dependent inhibition”. The “Aβ25-35-induced dissipation of ΔΨm” value in data set [8] is given as “significantly blocked”.
